Drawing on ChEMBL document CHEMBL2007661, “Compounds: GSK PKIS; Assays: UNC Frye lab” (2012), this text covers inhibition for 34 molecules.

Each structure is given as a SMILES string. Several values for one entry are separate records, joined by “and”; a condition that tells them apart may be missing. Equal values may be shown once.

Test [1] deals with T1, Inhibitor of nuclear factor kappa-B kinase subunit alpha (Homo sapiens) (UniProt O15111).
T1 sequence (whole entry): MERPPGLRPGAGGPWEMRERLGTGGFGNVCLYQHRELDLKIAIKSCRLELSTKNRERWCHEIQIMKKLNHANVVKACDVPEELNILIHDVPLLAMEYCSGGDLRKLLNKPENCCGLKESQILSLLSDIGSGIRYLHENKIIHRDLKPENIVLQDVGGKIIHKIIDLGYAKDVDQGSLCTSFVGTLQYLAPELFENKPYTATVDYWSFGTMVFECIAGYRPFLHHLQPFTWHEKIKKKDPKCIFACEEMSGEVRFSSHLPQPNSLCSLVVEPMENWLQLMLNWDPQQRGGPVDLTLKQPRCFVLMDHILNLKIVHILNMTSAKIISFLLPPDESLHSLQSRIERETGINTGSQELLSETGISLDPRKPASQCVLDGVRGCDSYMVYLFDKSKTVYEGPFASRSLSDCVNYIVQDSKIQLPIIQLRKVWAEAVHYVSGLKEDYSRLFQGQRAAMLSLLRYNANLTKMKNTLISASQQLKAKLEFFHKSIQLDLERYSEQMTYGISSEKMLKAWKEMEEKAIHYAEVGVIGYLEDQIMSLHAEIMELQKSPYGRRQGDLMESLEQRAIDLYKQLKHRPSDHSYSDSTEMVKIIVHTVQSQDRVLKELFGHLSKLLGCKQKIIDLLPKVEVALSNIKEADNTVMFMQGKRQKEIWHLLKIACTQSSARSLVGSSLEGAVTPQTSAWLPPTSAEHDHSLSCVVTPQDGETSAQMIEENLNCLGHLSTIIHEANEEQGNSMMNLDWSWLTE
The note with it: at 1 µM.

Test [2] concerns the target T2, Inhibitor of nuclear factor kappa-B kinase subunit epsilon (Homo sapiens) (UniProt Q14164).
T2 sequence (whole entry): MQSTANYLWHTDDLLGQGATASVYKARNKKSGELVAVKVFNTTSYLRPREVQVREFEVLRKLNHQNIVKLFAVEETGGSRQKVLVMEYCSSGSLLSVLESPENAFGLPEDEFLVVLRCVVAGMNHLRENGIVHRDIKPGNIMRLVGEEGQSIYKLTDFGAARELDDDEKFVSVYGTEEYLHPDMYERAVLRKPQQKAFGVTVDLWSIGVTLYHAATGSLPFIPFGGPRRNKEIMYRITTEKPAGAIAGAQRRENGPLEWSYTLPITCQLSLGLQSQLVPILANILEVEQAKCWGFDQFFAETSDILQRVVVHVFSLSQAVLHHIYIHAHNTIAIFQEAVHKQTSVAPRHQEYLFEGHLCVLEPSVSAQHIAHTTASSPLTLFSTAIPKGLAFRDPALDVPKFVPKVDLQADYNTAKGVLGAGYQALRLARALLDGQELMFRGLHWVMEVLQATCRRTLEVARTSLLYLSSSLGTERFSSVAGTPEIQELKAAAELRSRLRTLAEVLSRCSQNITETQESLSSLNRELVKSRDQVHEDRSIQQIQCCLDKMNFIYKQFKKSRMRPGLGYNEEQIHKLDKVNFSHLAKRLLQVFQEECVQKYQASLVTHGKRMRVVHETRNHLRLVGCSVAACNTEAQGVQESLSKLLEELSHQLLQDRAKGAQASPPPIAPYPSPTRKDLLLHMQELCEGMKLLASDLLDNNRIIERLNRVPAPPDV
Conditions: at 1 µM.

In general, inhibition refers to the relative decrease from the control value, in per cent. For `CCn1c(-c2nonc2N)nc2cnc(Oc3cccc(NC(=O)c4ccc(N(C)C)cc4)c3)cc21`, the inhibition is 5% and 9% in test [1]; 31% in test [2].

On to `COc1ccc2[nH]c3c4[nH]c5ccc(OC)cc5c4c4c(c3c2c1)C(=O)NC4=O`, for which the inhibition in test [1] was 12% and 13%; in test [2], 21% and 20%.

With `O=C1NC(=O)C(c2ccc(Cl)cc2)=C1Nc1ccc(Cl)c(C(=O)O)c1`, the inhibition in test [1] is 3%; in test [2], 1% and 2%.

As to `COc1cccc(-n2ncc3c(N/N=C/c4cccc(F)c4)ncnc32)c1`, the inhibition in test [1] is 1% and 0%; in test [2] it was -1% and 0%.

Regarding `Nc1nc(-c2ccccn2)c(-c2ccc3ncccc3n2)s1`, the inhibition in test [1] was 5%; in test [2] it was 0% and -2%.

Take `CC(C)COC(=O)c1ccc2c(c1)/C(=C/Nc1ccc(S(N)(=O)=O)cc1)C(=O)N2`: the inhibition in test [1] was -4% and -9%; in test [2], 94%.

As to `Cc1cc(O)cc(C)c1/C=C/c1cncc(C(=O)N(C)C)c1`, the inhibition was -8% and -5% in test [1]; 3% and 1% in test [2].

Regarding `O=C1NC(=O)C(N2CCc3ccccc32)=C1c1ccc(Cl)cc1`, the inhibition in test [1] is 8% and 9%; in test [2] it was 1%.

`Cc1nnc(-c2ccc(C)c(-c3ccc(C(=O)Nc4cccc(C#N)c4)cc3)c2)o1`: the inhibition was -1% and 3% in test [1]; -2% and -1% in test [2].

`COc1cc(Nc2ncc(-c3ccccc3)o2)cc(OC)c1OC`: the inhibition is 1% and 0% in test [1]; 17% and 13% in test [2].

Consider `COc1cc2ncn(-c3cc(OCc4ccccc4C(F)(F)F)c(C(=O)N(C)C)s3)c2cc1OC`, for which the inhibition in test [1] was 1% and 0%; in test [2] it was -1%.

On to `CN1CCC(n2cnc(-c3ccc(F)cc3)c2-c2ccnc(Nc3ccccc3)n2)CC1`, for which the inhibition is -1% and 0% in test [1]; 0% and -2% in test [2].

Turning to `CCn1c(-c2nonc2N)nc2c(N3CCCC3)nccc21`, the inhibition in test [1] was 3% and 2%; in test [2] it was -3% and -4%.

For the molecule `NC(=O)c1ccc(-c2nc(-c3ccccn3)c(-c3ccc4c(c3)OCO4)[nH]2)cc1`, the inhibition in test [1] is -3%; in test [2], -1% and -3%.

In the case of `NS(=O)(=O)c1ccc(N/N=C2\C(=O)Nc3cccc(CCc4ccncc4)c32)cc1`, the inhibition in test [1] was 5%; in test [2], 5% and 3%.

As to `O=C(NCC1CC1)c1ccc(-c2cccc(C(=O)NC3CC3)c2)cc1`, the inhibition is -4% and -5% in test [1]; -5% and 0% in test [2].

Consider `COC(=O)Nc1nc2cc(Oc3cccc(NC(=O)Nc4cc(C(F)(F)F)ccc4F)c3)ccc2[nH]1`, for which the inhibition is 0% and 2% in test [1]; -1% and -2% in test [2].

With `COc1cc2c(cc1Nc1nc(N3CCc4ccccc43)c3cc[nH]c3n1)N(C(=O)CN(C)C)CC2`, the inhibition in test [1] is 3%; in test [2], 21% and 19%.

Regarding `Cc1nc(-c2ccccc2)n2nc(NCCCN3CCOCC3)ncc12`, the inhibition in test [1] is 1%; in test [2], 3% and 4%.

On to `c1ccc(-c2nc3n(c2-c2ccc4c(c2)OCO4)CCC3)nc1`, for which the inhibition in test [1] is 2% and 0%; in test [2] it was 1% and 2%.

As for `CS(=O)(=O)CCNCc1nc(-c2ccc3ncnc(Nc4ccc(OCc5cccc(C(F)(F)F)c5)cc4)c3c2)cs1`, the inhibition in test [1] is -9% and 5%; in test [2], 0%.

For `COc1cc(N2CCN(C(C)C)CC2)ccc1Nc1nc(Nc2cccc3ncccc23)c2cc[nH]c2n1`, the inhibition is 2% and 9% in test [1]; 2% and 0% in test [2].

For `COc1cc(C=NNc2ncnc3c2cnn3-c2ccccc2)ccc1O`, the inhibition in test [1] is 12% and 15%; in test [2], 13% and 11%.

Regarding `COc1cc(C)c(NC(=O)CN(C)C)cc1Nc1nc(Nc2cccc(F)c2C(N)=O)c2cc[nH]c2n1`, the inhibition in test [1] was 2% and 3%; in test [2], 9% and 8%.

With `OCc1ccc(-c2nc(-c3ccccn3)c(-c3ccc4c(c3)OCO4)[nH]2)cc1`, the inhibition in test [1] is 14% and 7%; in test [2], -2%.

As to `CS(=O)(=O)CCNCc1ccc(-c2ccc3ncnc(Nc4ccc(OCc5ccccc5)cc4)c3c2)o1`, the inhibition in test [1] is 3%; in test [2], -1%.

Turning to `CCn1c(-c2nonc2N)nc2c(C#CC(C)(C)O)nc(OCCNC)cc21`, the inhibition in test [1] is 6% and 5%; in test [2] it was 44% and 46%.

For `Cc1ccc2c(-c3ccnc(Nc4ccccc4)n3)c(-c3ccc(F)cc3)nn2n1`, the inhibition in test [1] was 2% and 1%; in test [2], -1% and 0%.

As for `O=C(Nc1n[nH]c2nnc(-c3cccnc3)cc12)C1CC1`, the inhibition in test [1] was 5% and 7%; in test [2] it was -1% and 1%.

For `CC(C)(CO)CNC(=O)c1ccc2c(c1)/C(=N/Nc1ccc(S(N)(=O)=O)cc1)C(=O)N2`, the inhibition was -7% and 1% in test [1]; 77% and 76% in test [2].

As for `O=S(=O)(CCNCc1ccc(-c2ccc3ncnc(Nc4ccc(OCc5cccc(F)c5)c(Cl)c4)c3c2)o1)c1ccccc1`, the inhibition in test [1] was 4% and 12%; in test [2] it was -2% and -1%.

For `Nc1ncnc2occ(-c3ccc(NC(=O)Nc4cccc(C(F)(F)F)c4)cc3)c12`, the inhibition in test [1] was 3%; in test [2], 19% and 16%.

On to `COC(=O)Nc1nc2ccc(Oc3ccc(NC(=O)Nc4cccc(Cl)c4)cc3)cc2[nH]1`, for which the inhibition in test [1] is -3% and -2%; in test [2], 2% and 1%.

`CS(=O)(=O)Nc1cccc(-c2ccc3c(NC(=O)C4CC4)n[nH]c3c2)c1`: the inhibition in test [1] is 4% and 3%; in test [2], 0%.
